Reference: patent US12521439B2, “Methods and materials for modulating Nrf2 pathway” (The General Hospital Corporation, priority 2019, dated 2026)

Tests used:
GSCs (GBM8 and BT07) = assay: Multiplexed quantitative (TMT) proteomics after OBT treatment; assay type: cell-based, human; details: 20 h after subtoxic dose, two GSC lines
Procedure: Quantitative Proteomics: Cell pellets were lysed in a buffer of 75 mM NaCl, 50 mM HEPES pH 8.5, 10 mM sodium pyrophosphate, 10 mM sodium fluoride, 10 mM β-glycerophosphate, 10 mM sodium orthovanadate, 10 mM PMSF, Roche complete mini EDTA free protease inhibitors (1 tablet per 20 ml), and 3% SDS. Lysis was achieved by passing the suspension through a 21-gauge needle 20 times. Proteins were prepared for proteomics analysis as described previously. […] Twelve fractions were analyzed by multiplexed quantitative proteomics performed on an Orbitrap Fusion mass spectrometer (Thermo Scientifc) using a Simultaneous Precursor Selection (SPS) based MS3 method. […] For the cell line samples only MS3 with an average signal-to-noise value of larger than 40 per reporter ion as well as with an isolation specificity of larger than 0.75 were considered for quantification. […] A two-step normalization of the protein TMT-intensities was performed by first normalizing the protein intensities over all acquired TMT channels for each protein based on the median average protein intensity calculated for all proteins. To correct for slight mixing errors of the peptide mixture from each sample a median of the normalized intensities was calculated from all protein intensities in each TMT channel and the protein intensities were normalized to the median value of these median intensities. […]

[1] = Pharmacokinetics after single i.p. administration; assay type: in vivo, male Swiss Albino mice
Procedure: Pharmacokinetics studies: These studies were performed by SAI Lifesciences using Male Swiss Albino mice. OBT was resuspended in a solution formulation of 10% DMA, 10% EtOH, 10% PEG400 in 70% of (2-hydroxypropyl)-[…] (HPβCD). OBT was administered by intraperitoneal (i.p.) injection at 7.5 mg/kg. Blood samples were collected from mice, at 0, 0.08, 0.25, 0.5, 1, 2, 4, 8 and 24 hr. Immediately after blood collection, plasma was harvested by centrifugation and stored until analysis. After collection of blood, brain samples were collected from each mouse at 0.5, 4 and 24 h. Tissue samples were homogenized using ice-cold phosphate buffer saline (pH7.4) and homogenates were stored until analysis. Total homogenate volume was three times the tissue weight. Plasma samples were quantified by LC-MS/MS method (LLOQ=1.00 ng/mL) for plasma and brain.

Keap1 = Keap1 (Homo sapiens, UniProt Q14145); assay: Keap1 immunoblotting / immunoprecipitation; assay type: cell-based; parameters: Keap1 protein levels in U87 cells treated with the indicated doses of OBT for 8 hours; endogenous in cells; host or cells: U87, MDA-MB-231 (endogenous); 293T and MDA-MB-231 also transfected with HA-Keap1
Procedure: Immunoblotting and Immunoprecipitation analysis: Antibodies against PDI, GAPDH, HA-tag, Ubiquitin, Keap1 and beta-actin (Cell Signaling) as well as secondary Horseradish peroxidase (HRP) conjugated antibodies: sheep anti-mouse IgG-HRP and donkey antirabbit IgG-HRP (Amersham Pharmacia Biotech) were used in this study. For protein expression analysis, cells were lysed in RIPA buffer (150 mM NaCl, 50 mM TRIS, pH 8.0, 1% NP-40, 0.5% deoxycholate, 0.1% SDS) supplemented with 1× protease inhibitors cocktail (Roche). Proteins were quantified using a Bradford protein determination assay (Bio-Rad) followed by electrophoresis in 10% NuPAGE Bis-Tris gels (Life Technologies) and transfer to nitrocellulose membranes (Bio-Rad). Membranes were incubated overnight with antibodies in 1-5% non-fat milk powder in PBS/0.5% TWEEN. Proteins were detected with SuperSignal West Pico Chemiluminescent Substrate (Pierce). For immunoprecipitation assays, cells were lysed in RIPA buffer supplemented with protease inhibitors and 2 mM N-ethylmaleimide. Cell lysates were pre-cleared with protein A agarose beads (Cell Signaling) and incubated with anti-HA antibody with gentle rocking overnight at 4° C. followed by incubation with protein A agarose beads and subsequent washing and elution steps. Electrophoresis, transfer and immunoblot analysis was performed as described above.

Chain of Keap1 (Q14145 whole entry): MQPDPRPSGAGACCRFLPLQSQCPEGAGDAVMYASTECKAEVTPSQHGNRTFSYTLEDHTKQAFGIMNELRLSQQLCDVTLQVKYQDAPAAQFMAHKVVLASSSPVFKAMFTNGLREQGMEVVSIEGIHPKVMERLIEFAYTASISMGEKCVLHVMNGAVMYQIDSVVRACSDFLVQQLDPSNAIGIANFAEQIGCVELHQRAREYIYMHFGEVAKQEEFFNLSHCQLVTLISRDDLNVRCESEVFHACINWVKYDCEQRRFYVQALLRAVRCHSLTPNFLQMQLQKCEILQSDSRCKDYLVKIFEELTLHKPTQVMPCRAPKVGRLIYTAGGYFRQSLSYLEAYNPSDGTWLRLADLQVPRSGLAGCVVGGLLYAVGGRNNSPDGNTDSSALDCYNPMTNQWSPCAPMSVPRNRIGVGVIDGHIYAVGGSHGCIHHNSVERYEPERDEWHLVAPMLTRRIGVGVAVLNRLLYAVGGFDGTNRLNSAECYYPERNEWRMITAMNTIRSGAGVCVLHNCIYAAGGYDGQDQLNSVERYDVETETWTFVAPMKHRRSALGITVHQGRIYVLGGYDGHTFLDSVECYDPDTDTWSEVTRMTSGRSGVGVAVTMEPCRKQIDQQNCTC

Compound: COC1=CC(=O)C(O)=C/C1=C/C=C/c1ccccc1 [OBT, (Z)-2-hydroxy-5-methoxy-4-((E)-3-phenylallylidene)cyclohexa-2,5-dien-1-one]
- heme oxygenase 1 (HMOX1; HO1) protein change (GSCs (GBM8 and BT07)): top upregulated protein
- Vss relative to normal volume of total body water (0.7 L/kg) ([1]; 7.5 mg/kg i.p.): 3 fold
- systemic plasma clearance ([1]; 7.5 mg/kg i.p.): high
- time up to which plasma concentrations were detected ([1]; 7.5 mg/kg i.p., LC-MS/MS): up to 24 hrs
- blood-brain barrier penetration ([1]; intact BBB): efficiently penetrates
- Kp at 0.5 h ([1]; male, Swiss Albino, mouse, brain, ip, 7.5 mg/kg, 0.5 hr after single i.p. dose, read-out: brain-to-plasma ratio): 0.27
- Kp at 4 h ([1]; male, Swiss Albino, mouse, brain, ip, 7.5 mg/kg, 4 hrs after single i.p. dose, read-out: brain-to-plasma ratio): 0.5
- Tmax ([1]; male, Swiss Albino, mouse, ip, plasma, 7.5 mg/kg i.p.): 30 min
- half-life ([1]; male, Swiss Albino, mouse, plasma, ip, 7.5 mg/kg i.p., read-out: terminal plasma half-life): 24 min
- ubiquitination of Keap1 (Keap1; 293T, OBT 2 μM, 6 hours, IP anti-HA): resulted in ubiquitination of Keap1
- OBT-mediated degradation of Keap1 with CUL3 downregulation or proteasome inhibitor (Keap1; MDA-MB-231, OBT 3 μM, 6 hours): prevented
- time at which Keap1 restored to physiological levels (Keap1; U87): 24 h
- earliest time of Keap1 decrease (Keap1; U87, following treatment with OBT): 4 h
- Keap1 protein levels (Keap1; U87, 1 μM time course, indicated doses 8 hours): time- and dose-dependent decrease
